Results: article PMC4792161, “A novel pyrazole derivative protects from ovariectomy-induced osteoporosis through the inhibition of NADPH oxidase” (Scientific Reports, 2016)
Counter-ions that a name gives are not always drawn.

Tests used:
[1] = system: OVX-induced osteoporotic ddY mice; test: Bone strength (failure load, three-point bending test) in OVX mice; assay type: in vivo; details: oral once daily 28 days; risedronate 2.5 mg/kg
BMMs [2] = test: RANKL-induced OC differentiation, TRAP staining; assay type: cell-based, C57BL/6 mice; details: M-CSF 30 ng/ml, RANKL 100 ng/ml, dose-dependent
Experimental: (§1) RANKL-induced ROS generation was monitored by confocal microscopic analysis of DCF fluorescence. Data represent three repeated experiments and are shown as mean ± SD (n = 3). […] (D) TRAP^+ MNCs containing more than 3 nuclei were counted. Data represent mean ± S.D., *P < 0.005. Scale bar, 500 μm.
Primary BMMs were obtained from 6- to 8-week-old male C57BL/6 mice (The Jackson Laboratory, Bar Harbor, […], USA) as described previously. In brief, bone marrow cells were cultured in α-MEM (HyClone, Logan, UT, USA) containing 10% fetal bovine serum (FBS) (HyClone, Logan UT, USA) with 30 ng/ml macrophage-colony stimulating facor (M-CSF) for 3 days to obtain OC precursor cells of monocyte/macrophage lineage. For OC differentiation, the precursor cells were treated with 100 ng/ml RANKL in the presence of M-CSF with or without for 3–4 days. OCs were fixed with 4% paraformaldehyde and stained for tartrate-resistant acid phosphatase (TRAP) using a leukocyte acid phosphatase cytochemistry kit (Sigma-Aldrich, St. Louis, MO, USA) according to the manufacturer’s instructions. TRAP-positive multinucleated cells (TRAP^+ MNCs) containing three or more nuclei were counted as OC-like cells.

BMMs [3] = test: RANKL-induced intracellular ROS generation (DCF fluorescence); assay type: cell-based, C57BL/6 mice
Source text: as §1
DCF-DA is oxidized by ROS to the highly fluorescent DCF. After washed with HBSS, the cells were then examined with a laser scanning confocal microscope (LSM510; Zeiss) equipped with an argon laser tuned to an excitation wavelength of 488 nm, an LP505 emission filter (515–540 nm), and a Zeiss Axiovert objective lens. Images were digitized and stored at a resolution of 512 by 512 pixels. Five groups of cells were randomly selected from each sample, and the mean relative fluorescence intensity for each group of cells was measured with a Zeiss vision system and then averaged for all groups. All experiments were repeated at least three times.

BMMs [4] = test: RANKL-induced signaling, immunoblot of phospho-ERK, p38, JNK, IκBα; assay type: cell-based, C57BL/6 mice; details: BMMs pretreated 1 hour
Source text: Data represent mean ± SD. […] Actin serves as a loading control.

[5] = Body weight changes in OVX mice; assay type: in vivo, ddY mice; details: risedronate 2.5 mg/kg; Ewha-18278 2.5, 5, 10 and 20 mg/kg; 28 days
Experimental: (§2) The study was reviewed and approved by the Institutional Animal Care and Use Committee (IACUC) of Center for Laboratory Animal Sciences, Ewha Industry-University Cooperation Foundation, Ewha Womans University. Experimental methods were carried out in accordance with the approved ethic guidelines in Ewha Industry-University Cooperation Foundation, Ewha Womans University. Beginning 4 weeks after OVX, the female ddY mice received 2.5, 5, 10, or 20 mg/kg of #18–278, 2.5 mg/kg of risedronate, or vehicle once daily for 28 days. The Changes in body weight, bone weight, bone mineral density (BMD), failure load (FL), bone calcium (Ca), inorganic phosphorus (P) contents, histology and histomorphology were monitored. Serum osteocalcin and bone specific alkaline phosphatase (bALP) were monitored in mice receiving Ewha-18278.
R esi dronat e 2. 5mg/kg t reated mi ce […]
D ay after administration (d)
Supplementary Figure S7. Body weight changes in OVX mice. We selected eight mice per group showing more increases of body weights as compared with sham-operated mice and regarded as good OVX animals at four weeks after OVX surgery, consequently, significant increases of body weights were detected in all OVX groups as compared with sham control mice throughout 28 days of […]
mice, in the present study. Values are expressed mean ± S.D. of eight mice. Risedronate sodium was administered at 2.5mg/kg levels. […]

[6] = Pharmacokinetics after IV and oral administration to rats; assay type: in vivo
Experimental: Supplementary Table S1. Pharmacokinetic parameters of Ewha-89403 following IV and oral administration at the doses of 1 mg/kg and 10 mg/kg, respectively, to rats (n=4-5) PK Parameters IV Injection Oral Administration
Absolute Bioavailability (BA) = 4.3 %
Supplementary Table S2. Pharmacokinetic parameters of Ewha-18278 following IV and oral administration at the doses of 2 mg/kg and 20 mg/kg, respectively, to rats (n=5-6) […]
Absolute Bioavailability (BA) = 63.8 %

[7] = system: OVX-induced osteoporotic ddY mice; test: OVX-induced osteoporosis in ddY mice, overall anti-osteoporotic effect; assay type: in vivo
Experimental: Risedronate sodium (2.5 mg/kg) served as a reference compound. […] Histopathology and histomorphometrical analyses including trabecular bone volume (BV/TV), trabecular bone number (Tb.N), trabecular bone length (Tb.Le), trabecular bone thickness (Tb.Th), cortical bone thickness (Ct.Th), OC number (N.Oc), bone mineral density (BMD) and bone strength (failure load, FL) were conducted.
as §2

[8] = system: OVX-induced osteoporotic ddY mice; test: Number of OBs in cortical bone lining of OVX mice (H&E); details: mouse, in vivo
Experimental: Sham OVX Risedronate 20 mg/kg 10 mg/kg 5 mg/kg 2.5 mg/kg20.0mg/kg 10.0mg/kg 5.0mg/kg 2.5mg/kg […]
Supplementary Figure S8. […] CB number was […]
counted in osteoblastic lining in cortical bone with H&E staining. a p<0.005 and b p<0.005 as compared with OVX and Risendronate, respectively, c p<0.005 and d p<0.005 as compared with 20

Q: For `CCCc1c(-c2ccccc2)nn(-c2ccccn2)c1O` [Ewha-18278, 3-phenyl-1-(pyridin-2-yl)-4-propyl-1H-5-hydroxypyrazole HCl], which “bone strength (FL) of femur and tibia compared to control OVX” value [1] is on record?
A: enhanced

Q: And the “formation of TRAP-positive OCs with >3 nuclei” value (BMMs [2])?
A: inhibited the formation of TRAP-positive OCs

Q: And the “RANKL-mediated ROS generation” value (BMMs [3]; RANKL 200 ng/ml 10 minutes)?
A: reduced RANKL-mediated ROS generation in dose- and time-dependent manners

Q: And the “concentration at plateau of inhibition of RANKL-dependent ROS generation” value (BMMs [3]; after 60 min)?
A: 10 µM

Q: What about the “activation of MAPKs (JNK, p38, ERK) and phosphorylation of IκBα” value (BMMs [4]) of the same compound?
A: suppressed activation

Q: What about the “body weights as compared with OVX control mice” value [5] of the same compound?
A: no meaningful changes

Q: And the Clt ([6]; IV 2 mg/kg)?
A: 250 ± 72.3 mL/h

Q: And the oral availability ([6]; compared to Ewha-89403)?
A: high oral availability

Q: And the AUC(0-inf) ([6]; rat, in vivo, IV 2 mg/kg)?
A: 2150 ± 693 ng·h/mL

Q: And the AUC(0-t) ([6]; rat, in vivo, IV 2 mg/kg)?
A: 1770 ± 697 ng·h/mL

Q: What about the C0 ([6]; rat, in vivo, IV 2 mg/kg) of the same compound?
A: 7480 ± 3420 ng/mL

Q: And the Vd ([6]; rat, in vivo, IV 2 mg/kg)?
A: 1.52 ± 1.17 L

Q: And the half-life ([6]; rat, in vivo, IV 2 mg/kg)?
A: 4.07 ± 2.28 h

Q: What about the bioavailability ([6]; rat, in vivo, IV 2 mg/kg and oral 20 mg/kg, read-out: Absolute Bioavailability (BA)) of the same compound?
A: 63.8%

Q: And the AUC(0-inf) ([6]; rat, in vivo, oral 20 mg/kg)?
A: 14400 ± 8170 ng·h/mL

Q: And the AUC(0-t) ([6]; rat, in vivo, oral 20 mg/kg)?
A: 11300 ± 6470 ng·h/mL

Q: And the Cmax ([6]; rat, in vivo, oral 20 mg/kg)?
A: 5010 ± 2510 ng/mL

Q: And the Tmax ([6]; rat, in vivo, oral 20 mg/kg)?
A: 0.233 ± 0.171 h

Q: And the half-life ([6]; rat, in vivo, oral 20 mg/kg)?
A: 14.4 ± 3.73 h

Q: What about the anti-osteoporotic effects ([7]; 2.5 mg/kg) of the same compound?
A: did not produce obvious favorable anti-osteoporotic effects

Q: And the “anti-osteoporotic effects compared to risedronate (2.5 mg/kg/day for 28 days)” value ([7]; 10 mg/kg/day for 28 days)?
A: similar

Q: And the “cortical bone thickness compared to risedronate” value ([7]; OVX mice)?
A: significantly increased cortical bone thickness

Q: And the “number of OCs in the tibia and femur” value ([7]; compared to control mice)?
A: decreased number of OCs

Q: And the optimal effective dosage ([7]; oral once daily 28 days, OVX mice)?
A: 10 mg/kg

Q: What about the “number of OBs in tibia and femur compared to OVX control mice” value [8] of the same compound?
A: increased
